Calls of active or inactive are those of the source. No rule for the calls is given here.

This data set deals with rodent lifetime carcinogenesis bioassay, tumor incidence TD50. Put plainly: carcinogenic potency in animals, long-term in vivo studies, CPDB compilation (AID 1745844).

For `Nc1ccccc1`, the TD50 – broadly, the dose at which the toxic effect under study appears in half of the subjects – is, setting by setting: (mouse, strain B6C3F1, females, in feed, site: any site (literature study), lesion: several types, types named in the paper, dosed 103 weeks, study length 107 weeks) 9150 mg/kg/day (inactive); (mouse, strain B6C3F1, females, in feed, site: liver, lesion: hepatocellular adenoma + hepatocellular carcinoma + neoplastic nodule, dosed 103 weeks, study length 107 weeks) 8850 mg/kg/day; (rat, strain Fischer 344, females, in feed, site: liver, lesion: hepatocellular adenoma + hepatocellular carcinoma + neoplastic nodule, dosed 103 weeks, study length 107 weeks) 13000 mg/kg/day; (rat, strain Fischer 344, females, in feed, site: multiple organs + spleen, lesion: fibrosarcoma + sarcoma, NOS, dosed 103 weeks, study length 107 weeks) 1740 mg/kg/day; (rat, strain Fischer 344, males, in feed, site: adrenal gland, lesion: pheochromocytoma + pheochromocytoma, malignant, dosed 103 weeks, study length 107 weeks) 556 mg/kg/day; (rat, strain Fischer 344, males, in feed, site: any site (literature study), lesion: several types, types named in the paper, dosed 103 weeks, study length 107 weeks) 124 mg/kg/day. The TD50 was 88 mg/kg/day (rat, strain Fischer 344, males, in feed, site: body cavities + multiple organs + spleen, lesion: mesothelioma, NOS + fibrosarcoma + hemangiosarcoma + sarcoma, NOS, dosed 103 weeks, study length 107 weeks); 263 mg/kg/day (rat, strain Fischer 344, males, in feed, site: body cavities + multiple organs + spleen, lesion: mesothelioma, NOS + fibrosarcoma + sarcoma, NOS, dosed 103 weeks, study length 107 weeks); 146 mg/kg/day (rat, strain Fischer 344, males, in feed, site: body cavities + multiple organs + spleen, lesion: mesothelioma, NOS + hemangiosarcoma, dosed 103 weeks, study length 107 weeks); 572 mg/kg/day (rat, strain Fischer 344, males, in feed, site: body cavities + multiple organs, lesion: mesothelioma, NOS + fibrosarcoma + sarcoma, NOS, dosed 103 weeks, study length 107 weeks); 451 mg/kg/day (rat, strain Fischer 344, males, in feed, site: spleen, lesion: fibrosarcoma + sarcoma, NOS, dosed 103 weeks, study length 107 weeks); 160 mg/kg/day (rat, strain Fischer 344, males, in feed, site: spleen, lesion: hemangiosarcoma, dosed 103 weeks, study length 107 weeks). For the same molecule, where the note is “mouse, strain B6C3F1, males, in feed, site: any site (literature study), lesion: several types, types named in the paper, dosed 103 weeks, study length 107 weeks”, the carcinogen call was “negative (inactive)”.

Take `NC(N)=S`: the carcinogen call runs as follows: (rat, strain Fischer 344, males, i.p., site: liver, lesion: one or several types, types not named, dosed 60 weeks, study length 60 weeks) “negative (inactive)”; (rat, strain Osborne-Mendel, females, in feed, site: any site (literature study), lesion: malignant tumor, dosed 104 weeks, study length 104 weeks) “negative (inactive)”; (rat, strain Osborne-Mendel, females, in feed, site: liver, lesion: one or several types, types not named, dosed 104 weeks, study length 104 weeks) “negative (inactive)”; (rat, strain Osborne-Mendel, females, in feed, site: liver, lesion: one or several types, types not named, dosed 113 weeks, study length 113 weeks) “negative (inactive)”; (rat, strain Osborne-Mendel, males, in feed, site: any site (literature study), lesion: malignant tumor, dosed 104 weeks, study length 104 weeks) “negative (inactive)”; (rat, strain Osborne-Mendel, males, in feed, site: liver, lesion: one or several types, types not named, dosed 104 weeks, study length 104 weeks) “negative (inactive)”. Further, the carcinogen call (rat, strain Osborne-Mendel, males, in feed, site: liver, lesion: one or several types, types not named, dosed 113 weeks, study length 113 weeks) was “negative (inactive)”. Further, the TD50 is 27.5 mg/kg/day (rat, strain Hebrew University, males, in drinking water, site: any site (literature study), lesion: several types, types named in the paper, dosed 113 weeks, study length 113 weeks); 93.5 mg/kg/day (rat, strain Hebrew University, males, in drinking water, site: auricular region, lesion: epidermoid carcinoma, dosed 113 weeks, study length 113 weeks); 93.5 mg/kg/day (rat, strain Hebrew University, males, in drinking water, site: eyelid, lesion: epidermoid carcinoma, dosed 113 weeks, study length 113 weeks); 50.8 mg/kg/day (rat, strain Hebrew University, males, several routes, site: any site (literature study), lesion: several types, types named in the paper, dosed 95 weeks, study length 95 weeks); 104 mg/kg/day (rat, strain Hebrew University, males, several routes, site: auricular region, lesion: epidermoid carcinoma, dosed 95 weeks, study length 95 weeks); 225 mg/kg/day (rat, strain Hebrew University, males, several routes, site: eyelid, lesion: epidermoid carcinoma, dosed 95 weeks, study length 95 weeks). In addition, the TD50 runs as follows: (rat, strain Osborne-Mendel, females, in feed, site: any site (literature study), lesion: benign tumor, dosed 104 weeks, study length 104 weeks) 15 mg/kg/day (inactive); (rat, strain Osborne-Mendel, females, in feed, site: any site (literature study), lesion: several types, types named in the paper, dosed 113 weeks, study length 113 weeks) 16.2 mg/kg/day (inactive); (rat, strain Osborne-Mendel, males, in feed, site: any site (literature study), lesion: benign tumor, dosed 104 weeks, study length 104 weeks) 64.7 mg/kg/day (inactive); (rat, strain Osborne-Mendel, males, in feed, site: any site (literature study), lesion: several types, types named in the paper, dosed 113 weeks, study length 113 weeks) 46.1 mg/kg/day (inactive).

Take `CCC1CO1` (centres undefined): the TD50 is, setting by setting: (mouse, strain B6C3F1, females, inhaled, site: any site (literature study), lesion: several types, types named in the paper, dosed 102 weeks, study length 104 weeks) 141 mg/kg/day (inactive); (mouse, strain B6C3F1, females, inhaled, site: liver, lesion: hepatocellular adenoma + hepatocellular carcinoma + neoplastic nodule, dosed 102 weeks, study length 104 weeks) 445 mg/kg/day; (mouse, strain B6C3F1, females, inhaled, site: lung, lesion: alveolar/bronchiolar adenoma + alveolar/bronchiolar carcinoma, dosed 102 weeks, study length 104 weeks) 834 mg/kg/day; (mouse, strain B6C3F1, males, inhaled, site: any site (literature study), lesion: several types, types named in the paper, dosed 102 weeks, study length 104 weeks) 2470 mg/kg/day (inactive); (mouse, strain B6C3F1, males, inhaled, site: liver, lesion: hepatocellular adenoma + hepatocellular carcinoma + neoplastic nodule, dosed 102 weeks, study length 104 weeks) 8600 mg/kg/day; (rat, strain Fischer 344, females, inhaled, site: any site (literature study), lesion: several types, types named in the paper, dosed 103 weeks, study length 105 weeks) 78 mg/kg/day. Further, the TD50 turned out to be 1730 mg/kg/day (rat, strain Fischer 344, females, inhaled, site: nasal cavity, lesion: papillary adenoma, dosed 103 weeks, study length 105 weeks); 545 mg/kg/day (rat, strain Fischer 344, females, inhaled, site: ovary, lesion: granulosa-cell carcinoma + granulosa-cell tumor + thecoma, dosed 103 weeks, study length 105 weeks); 83.8 mg/kg/day (rat, strain Fischer 344, females, inhaled, site: pituitary gland, anterior, lesion: adenoma, NOS, dosed 103 weeks, study length 105 weeks); 509 mg/kg/day (rat, strain Fischer 344, females, inhaled, site: thyroid gland, lesion: follicular-cell adenoma + follicular-cell carcinoma, dosed 103 weeks, study length 105 weeks); 79.6 mg/kg/day (rat, strain Fischer 344, males, inhaled, site: any site (literature study), lesion: several types, types named in the paper, dosed 103 weeks, study length 105 weeks); 622 mg/kg/day (rat, strain Fischer 344, males, inhaled, site: liver, lesion: hepatocellular adenoma + hepatocellular carcinoma + neoplastic nodule, dosed 103 weeks, study length 105 weeks). Also, the TD50 reads like this: (rat, strain Fischer 344, males, inhaled, site: lung + nasal cavity, lesion: alveolar/bronchiolar adenoma + alveolar/bronchiolar carcinoma + papillary adenoma, dosed 103 weeks, study length 105 weeks) 106 mg/kg/day; (rat, strain Fischer 344, males, inhaled, site: lung, lesion: alveolar/bronchiolar adenoma + alveolar/bronchiolar carcinoma, dosed 103 weeks, study length 105 weeks) 220 mg/kg/day; (rat, strain Fischer 344, males, inhaled, site: lung, lesion: alveolar/bronchiolar carcinoma, dosed 103 weeks, study length 105 weeks) 314 mg/kg/day; (rat, strain Fischer 344, males, inhaled, site: multiple organs + spleen, lesion: mononuclear-cell leukemia, dosed 103 weeks, study length 105 weeks) 30.7 mg/kg/day; (rat, strain Fischer 344, males, inhaled, site: nasal cavity, lesion: papillary adenoma, dosed 103 weeks, study length 105 weeks) 220 mg/kg/day.

For `COC(N)=O`, the carcinogen call (mouse, strain B6C3F1, females, by gavage, site: any site (literature study), lesion: several types, types named in the paper, dosed 103 weeks, study length 104 weeks) is “negative (inactive)”. In addition, the TD50 is, setting by setting: (mouse, strain B6C3F1, females, by gavage, site: liver, lesion: hepatocellular adenoma + hepatocellular carcinoma + neoplastic nodule, dosed 103 weeks, study length 104 weeks) 4700 mg/kg/day; (mouse, strain B6C3F1, males, by gavage, site: any site (literature study), lesion: several types, types named in the paper, dosed 103 weeks, study length 104 weeks) 5220 mg/kg/day (inactive); (mouse, strain B6C3F1, males, by gavage, site: liver, lesion: hepatocellular adenoma + hepatocellular carcinoma + neoplastic nodule, dosed 103 weeks, study length 104 weeks) 5080 mg/kg/day; (rat, strain Fischer 344, females, by gavage, site: liver, lesion: hepatocellular adenoma + hepatocellular carcinoma + neoplastic nodule, dosed 103 weeks, study length 104 weeks) 839 mg/kg/day; (rat, strain Fischer 344, females, by gavage, site: liver, lesion: hepatocellular carcinoma + neoplastic nodule, dosed 103 weeks, study length 104 weeks) 839 mg/kg/day; (rat, strain Fischer 344, females, by gavage, site: liver, lesion: hepatocellular carcinoma, dosed 52 weeks, study length 52 weeks) 53.4 mg/kg/day. The TD50 reads like this: (rat, strain Fischer 344, females, by gavage, site: liver, lesion: hepatocellular carcinoma, dosed 78 weeks, study length 78 weeks) 68.4 mg/kg/day; (rat, strain Fischer 344, females, by gavage, site: liver, lesion: neoplastic nodule, dosed 52 weeks, study length 52 weeks) 21.3 mg/kg/day; (rat, strain Fischer 344, females, by gavage, site: liver, lesion: neoplastic nodule, dosed 78 weeks, study length 78 weeks) 159 mg/kg/day; (rat, strain Fischer 344, females, by gavage, site: liver, lesion: neoplastic nodule, dosed 103 weeks, study length 104 weeks) 979 mg/kg/day; (rat, strain Fischer 344, males, by gavage, site: liver, lesion: hepatocellular adenoma + hepatocellular carcinoma + neoplastic nodule, dosed 103 weeks, study length 104 weeks) 2030 mg/kg/day; (rat, strain Fischer 344, males, by gavage, site: liver, lesion: hepatocellular carcinoma + neoplastic nodule, dosed 103 weeks, study length 104 weeks) 2030 mg/kg/day. Also, the TD50 by setting is: (rat, strain Fischer 344, males, by gavage, site: liver, lesion: hepatocellular carcinoma, dosed 52 weeks, study length 52 weeks) 30.4 mg/kg/day; (rat, strain Fischer 344, males, by gavage, site: liver, lesion: hepatocellular carcinoma, dosed 78 weeks, study length 78 weeks) 47.8 mg/kg/day; (rat, strain Fischer 344, males, by gavage, site: liver, lesion: neoplastic nodule, dosed 52 weeks, study length 52 weeks) 40.7 mg/kg/day; (rat, strain Fischer 344, males, by gavage, site: liver, lesion: neoplastic nodule, dosed 78 weeks, study length 78 weeks) 494 mg/kg/day.

Turning to `Cc1ccccc1OCC(O)CNCCn1cc(C)c(=O)[nH]c1=O` (centres undefined), the TD50 turned out to be 52.3 mg/kg/day (mouse, strain Charles River CD1, females, in feed, site: any site (literature study), lesion: several types, types named in the paper, dosed 78 weeks, study length 78 weeks); 1670 mg/kg/day (mouse, strain Charles River CD1, females, in feed, site: liver, lesion: hepatocellular carcinoma, dosed 78 weeks, study length 78 weeks); 1670 mg/kg/day (mouse, strain Charles River CD1, females, in feed, site: lung, lesion: adenocarcinoma, dosed 78 weeks, study length 78 weeks); 449 mg/kg/day (mouse, strain Charles River CD1, females, in feed, site: lung, lesion: adenoma, dosed 78 weeks, study length 78 weeks); 935 mg/kg/day (mouse, strain Charles River CD1, males, in feed, site: liver, lesion: hepatocellular carcinoma, dosed 78 weeks, study length 78 weeks).

For the origin of these results see PubChem BioAssay AID1745844 (Carcinogenic Potency Database (CPDB), 2022).
